Here are results for five compounds from patent US20060111305A1, “Metabolites of certain [1,4]diazepino[6,7,1-ij]quinoline derivatives and methods of preparation and use thereof” (Wyeth, priority 2004, published 2006).

Counter-ions that a name gives are not always drawn. Like-named read-outs stand apart in the source and are kept apart here. Marks after values point to notes of the source that are not given here.

Holding throughout (assay type): in vivo, Sprague-Dawley rats
Data set [1] can be described thus: Metabolites of DCDQ identified in rats by LC/MS analysis (Table 18). The conditions noted are these: P = plasma, U = urine, B = brain, F = feces. On the procedure: An Agilent Model 1100 HPLC system (Agilent Technologies, Wilmington, Del.) including an autosampler and diode array UV detector was used for LC/MS analysis of plasma and urine samples. The UV detector was set to monitor 200 to 400 nm. For selected LC/MS analyses, radiochromatograms were acquired using a β-Ram model 3 radioactivity flow detector (IN/US Systems Inc., Tampa, Fla.) equipped with a solid scintillant flow cell. Fecal samples were also analyzed using a Waters Alliance model 2690 HPLC system. It was equipped with a built-in autosampler and a model 996 diode array UV detector set to 210-350 nm. The HPLC flow was split between a Radiomatic model 150TR flow scintillation analyzer (Perkin Elmer) and the mass spectrometer. Other HPLC conditions were the same as condition B described above.
The mass spectrometer used for metabolite characterization for plasma and urine was a Micromass Q-TOF-2 quadrupole time-of-flight hybrid mass spectrometer (Waters). The mass spectrometer was equipped with an electrospray ionization (ESI) interface and operated in the positive ionization mode. Collision energy settings of 5 and 30 eV were used for full MS and MS/MS scans, respectively. Settings for the mass spectrometer are listed below.
A Micromass Quattro Micro mass spectrometer (Waters) was also used to analyze the fecal samples. It was equipped with an electrospray ionization (ESI) interface and operated in the positive ionization mode. Settings for the mass spectrometer are listed below.
LC/MS/MS in the selected reaction-monitoring (SRM) mode (LC/SRM) was conducted with the triple quadruple mass spectrometer to monitor DCDQ and its metabolites in fecal samples. The transitions monitored are listed below.

A short description of data set [2]: Rat urinary excretion and metabolite profiles after single oral 5 mg/kg [14C]DCDQ. To be noted: oral 5 mg/kg, mean n = 3. On the procedure:
(§1) At sacrifice, blood samples were collected by cardiac puncture into tubes containing EDTA as the anticoagulant and placing them on ice. Aliquots of 50 μL were removed for combustion and determination of radioactivity content. Plasma was immediately obtained from the remaining blood by centrifugation at 4° C. Brains were excised after perfusion with 50 mL of chilled sterile saline. Urine samples were collected on dry ice at intervals of 0-8 and 8-24 hour post-dosing. Feces were collected at intervals of 0-8 and 8-24 hr post-dosing at room temperature and were homogenized as described previously. The biological specimens and aliquots of the dosing solution at pre- and post-dose were stored at approximately −70° C. until analyzed.
Plasma (20 μL) and urine (50 μL) aliquots were analyzed for radioactivity concentrations. Radioactivity determinations of dose, plasma and urine were made with a Tri-Carb Model 3100 TR/LL liquid scintillation counter (LSC) (Perkin Elmer) using 10 mL of Ultima Gold as the scintillation fluid.
Urine was analyzed for radioactivity concentration as and analyzed for metabolite profiles by direct injection onto the HPLC column. LC/MS analyses for metabolite identification were also carried out with urine samples.
(§2) A Waters model 2690 HPLC system (Waters Corp., Milford, Mass.) with a built-in autosampler was used for analysis. Separations were accomplished on a Phenomenex Luna C18(2) column (150×2.0 mm, 5 μm) (Phenomenex, Torrance, Calif.). The sample chamber of the autosampler was maintained at 4° C., while the column was at ambient temperature of about 20° C. A variable wavelength UV detector set to monitor 250 nm and a Flo-One β Model A525 radioactivity detector described above were used for data acquisition. The HPLC mobile phase consisted of 10 mM ammonium acetate, pH 4.5 (A) and methanol (B), and was delivered at 0.2 mL/min. Chromatographic condition A was used for dose analysis, while condition B was used for analysis of urine and plasma, brain and fecal extracts.

Data set [3] in a line: Rat plasma metabolite profiles after single oral 5 mg/kg [14C]DCDQ. To be noted: for concentration at 2 h / concentration at 8 h / concentration at 4 h: Sprague-Dawley, rat, plasma, mean n = 3, read-out: Estimated plasma concentration in rats; for Chromatographic distribution of radioactivity in rat plasma / Estimated plasma concentration in rats: mean n = 3. On the procedure: Plasma samples were analyzed for metabolite profiles by HPLC. Aliquots of 1.5 mL plasma were mixed with 3.0 mL methanol, placed on ice for about 10 minutes, and then centrifuged. The supernatant was transferred to a clean tube. The protein pellets were extracted once with 3.0 mL methanol. The supernatants from precipitation and extraction of each sample were pooled, mixed, and evaporated at 22° C. under nitrogen in a Zymark TurboVap LV (Caliper Life Sciences, Hopkinton, Mass.) to about 0.3 mL. The concentrated extract was centrifuged, the supernatant volume measured and extraction efficiency was determined by analyzing duplicate 10 μL aliquots for radioactivity. An aliquot of the supernatant (50-200 μL) was analyzed by HPLC with radioactivity flow detection. Plasma extracts were also analyzed by LC/MS.
as §2

Data set [4] can be described thus: Rat fecal excretion and metabolite profiles after single oral 5 mg/kg [14C]DCDQ. The conditions noted are these: male rats, 8-24 hour fecal extracts. On the procedure: as §1
Brain and fecal samples were weighed and homogenized in water at volume-to-weight ratios of about 1:1 and 5:1, respectively. Blood aliquots (50 μL), brain homogenates (0.1 gram) and fecal homogenates (0.2 gram) were placed on Combusto-cones with Combusto-pads and combusted. A model 307 Tri-Carb Sample Oxidizer, equipped with an Oximate-80 Robotic Automatic Sampler (Perkin Elmer), was used for combustion. The liberated ^14CO2 was trapped with Carbo-Sorb E carbon dioxide absorber, mixed with PermaFluor® E+ liquid scintillation cocktail, and counted in a Tri-Carb Model 3100 TR/LL liquid scintillation counter (Perkin Elmer). The oxidation efficiency of the oxidizer was 98.2%.
Fecal homogenates were analyzed for metabolite profiles. Aliquots of 1 gram of fecal homogenates were mixed with 2 mL methanol, placed on ice for about 10 minutes and centrifuged. The supernatant was transferred to a clean tube. The residue was extracted three times with 2 mL of a water:methanol (3:7) mixture. The supernatants of each sample were combined, evaporated to about 1 mL, and centrifuged. Extraction efficiency was determined by analyzing aliquots of 10 μL of the supernatant for radioactivity. An aliquot (50-200 μL) of the supernatant was analyzed by HPLC with radioactivity flow detection for profiling. Samples were also analyzed by LC/MS to characterize the radioactive peaks.
as §2, with “Chromatographic condition A was used for dose analysis, while condition B was used for analysis of urine and plasma, brain and fecal extracts.” left out

In the case of `OC1CNCc2cccc3c2N1C[C@@H]1CCC[C@H]31` (stereo partly drawn) [Metabolite M10, hydroxy DCDQ], the Matrix result in data set [1] was “U, B, F”. The “Chromatographic distribution of radioactivity in male rat urine” value in data set [2] (0-8 hr) amounted to 3.32%; in data set [2] (8-24 hr), 2.70%. For the same compound, the “Percentage of dose for urinary metabolites in rats” value in data set [2] (0-8 hr) was determined as 1.08%; in data set [2] (0-24 hr) it was 1.99%; in data set [2] (8-24 hr) it was 0.91%. The concentration at 2 h is 35.2 ng/mL in data set [3] (female, 2 hr) and 23.7 ng/mL in data set [3] (male, 2 hr). The concentration at 8 h is 18.9 ng/mL in data set [3] (female, 8 hr) and 13.2 ng/mL in data set [3] (male, 8 hr). Besides, in data set [3] (male, 4 hr), the concentration at 4 h was 9.81 ng/mL. In addition, the “Chromatographic distribution of radioactivity in rat plasma” value in data set [3] (female, 2 hr) stood at 5.2%; in data set [3] (female, 8 hr), 5.6%; in data set [3] (male, 2 hr), 3.6%; in data set [3] (male, 4 hr) it was 1.5%; in data set [3] (male, 8 hr) it was 3.0%.

As to `CC(=O)N1Cc2cccc3c2N(C[C@@H]2CCC[C@H]32)C(O)C1` (stereo partly drawn) [Metabolite M11, acetylated hydroxy DCDQ], the Matrix result in data set [1] was “P, B, F”. For the same compound, the concentration at 2 h is 41 ng/mL in data set [3] (female, 2 hr) and 37.2 ng/mL in data set [3] (male, 2 hr). Moreover, the concentration at 8 h in data set [3] (female, 8 hr) is 16.6 ng/mL; in data set [3] (male, 8 hr), 16.3 ng/mL. The concentration at 4 h in data set [3] (male, 4 hr) was 34.5 ng/mL. Moreover, the “Chromatographic distribution of radioactivity in rat plasma” value in data set [3] (female, 2 hr) is recorded as 6.1%; in data set [3] (female, 8 hr), 4.9%; in data set [3] (male, 2 hr), 6.0%; in data set [3] (male, 4 hr), 5.2%; in data set [3] (male, 8 hr), 3.6%. For the same compound, the “relative abundance in fecal extracts” value in data set [4] is listed as “major metabolites”.

As to `O=S(=O)(O)N1CCN2C[C@@H]3CCC[C@@H]3c3cccc(c32)C1` [Metabolite M12, DCDQ sulfamate], the Matrix result in data set [1] is on record as “P, U”. In addition, the concentration at 2 h in data set [3] (female, 2 hr) is 33.8 ng/mL. Besides, the concentration at 8 h in data set [3] (female, 8 hr) was 11.8 ng/mL. Moreover, the “Chromatographic distribution of radioactivity in rat plasma” value was 5.2^e % in data set [3] (female, 2 hr); 3.3% in data set [3] (female, 8 hr); “BQL^c” in data set [3] (male, 2 hr); “BQL” in data set [3] (male, 4 hr); “BQL” in data set [3] (male, 8 hr). In addition, the “Estimated plasma concentration in rats” value in data set [3] (male, 2 hr) was “BQL^c”; in data set [3] (male, 4 hr), “BQL”; in data set [3] (male, 8 hr), “BQL”.

Consider `O=S(=O)(O)OC1CC[C@@H]2c3cccc4c3N(CCNC4)CC12` (stereo partly drawn) [Metabolite M13, 17-hydroxy DCDQ sulfate], for which the concentration at 2 h in data set [3] (female, 2 hr) is 16.6 ng/mL; in data set [3] (male, 2 hr), 11.6 ng/mL. The concentration at 8 h in data set [3] (female, 8 hr) was 5.62 ng/mL; in data set [3] (male, 8 hr) it was 6.33 ng/mL. For the same compound, the concentration at 4 h in data set [3] (male, 4 hr) was 14.2 ng/mL. The “Chromatographic distribution of radioactivity in rat plasma” value in data set [3] (female, 2 hr) was determined as 2.6%; in data set [3] (female, 8 hr), 1.6%; in data set [3] (male, 2 hr) it was 1.9%; in data set [3] (male, 4 hr), 2.2%; in data set [3] (male, 8 hr) it was 1.4%.

For `O=S(=O)(O)N1CCN2CC3=CCC=C3c3cccc(c32)C1` [Metabolite M14, di-dehydro DCDQ sulfamate], in data set [1], the Matrix entry is “P, U”. For the same compound, the concentration at 2 h in data set [3] (female, 2 hr) is 25.1 ng/mL. Besides, the concentration at 8 h in data set [3] (female, 8 hr) was 16.5 ng/mL. Further, the “Chromatographic distribution of radioactivity in rat plasma” value in data set [3] (female, 2 hr) is reported as 4.0^d %; in data set [3] (female, 8 hr), 4.9^d %; in data set [3] (male, 2 hr), “BQL”; in data set [3] (male, 4 hr) it was “BQL”; in data set [3] (male, 8 hr), “BQL”. Moreover, the “Estimated plasma concentration in rats” value is listed as “BQL” in data set [3] (male, 2 hr); “BQL)” in data set [3] (male, 4 hr); “BQL” in data set [3] (male, 8 hr).
